“Also recorded” adds a separate entry of the source. Read-outs that look alike come from different tables or passages of the source. Each block holds one compound with its values, some of them ahead of it. Peptide text beside a SMILES is read from it.
Tests used:
ACE = settings: cited from earlier work
Description: Peptide LRIPVA from spinach inhibited 50% of the ACE at a concentration as low as 0.38 μM [29]. However, there were also studies reported on similar IC50 value with the current study. […] It was predicted to remain stable throughout the digestion process. […] Jimsheena and Gouda had shown the important role of stere ... || (+ 2 further places)

[1] = target: T1, Angiotensin I-converting enzyme (ACE) (Homo sapiens, UniProt P12821); experiment: ACE inhibitory activity assay (ACE kit-WST); assay type: biochemical; settings: synthesised peptide, absorbance 450 nm, triplicate, mean ± standard deviation
T1 construct: purchased Dojindo Laboratories ACE kit-WST
Description: (§1) In the current study, ACE inhibitory activity was determined using an ACE inhibitory assay kit (ACE kit-WST, Dojindo Laboratories, Kumamoto, Japan). The assay was carried out according to the protocol provided by the manufacturer. Absorbances of the reactions were measured using a Sunrise® ELISA microplate reader (Tecan, Grödig, Austria) at 450 nm. The ACE inhibitory activity of the samples was calculated using the formula given in the protocol. The concentration of the ACE inhibitor required to inhibit 50% of ACE activity under the above assay conditions was defined as the IC50.
The analysis of ACE inhibitory activity was carried out in triplicate and result was reported as mean ± standard deviation. Mean differences of ACE inhibitory activity in SEC fractions was analyzed using one-way ANOVA in Statgraphics Plus 3.0 at p < 0.05.

[2] = target: T1, Angiotensin I-converting enzyme (ACE); experiment: ACE inhibitory activity after simulated gastrointestinal digestion; assay type: biochemical; settings: mean, n = 3; for inhibition at 100 µg/mL (stock): 0.1 mg/ml, pepsin 2.5 hrs, then pH 8.0, 0.025% chymotrypsin and 0.025% trypsin, another 2.5 hrs, read-out: ACE inhibitory activity after pepsin-pancreatin digestion; for inhibition at 100 µg/mL (stock) / ACE inhibitory activity after digestion by pepsin: 37°C; for ACE inhibitory activity without gastrointestinal digestion (control): peptide solution 0.1 mg/ml incubated in buffer solutions (HCl and potassium phosphate buffer); for ACE inhibitory activity after digestion by pepsin: peptide solution 0.1 mg/ml with 0.05% pepsin (0.1 M HCl, pH 2.0), 2.5 hrs
Description: as §1
(§2) The stability of the synthesised peptides against gastrointestinal proteases was assessed in vitro by the method of Wu and Ding. The peptide solution (0.1 mg/ml, 0.5 ml) was incubated with 0.5 ml of a 0.05% pepsin solution (0.1 M HCl at pH 2.0) for 2.5 hrs at 37°C. In the successive pepsin-pancreatin digestion test, the peptide solution was adjusted to pH 8.0 after pepsin digestion. Then, 0.5 ml of pancreatin solution [potassium phosphate buffer (0.1 M, pH 8.0) containing 0.025% (w/v) chymotrypsin and 0.025% (w/v) trypsin] was added to the solution. The mixture was incubated for another 2.5 hrs at 37°C. The control (without digestion) consisted of peptide solution incubated in buffer solutions (HCl and potassium phosphate buffer) and was carried out alongside the experiment. After enzymatic treatment, the pepsin solution and pepsin-pancreatin solution were boiled for 10 min to stop the digestion and then centrifuged at 10,000 rpm for 10 min. The supernatants were freeze-dried and used for the measurement of ACE inhibitory activity. The stability of the purified peptides against gastrointestinal enzymes was analysed by SEC.
Figure 3 Effect of simulated gastrointestinal digestion on the ACE inhibitory activity of peptides AHEPVK and GPSMR. Control: The peptide solutions (0.1 mg/ml) were incubated in buffer solutions (HCl and potassium phosphate buffer). P: The peptide solutions were incubated with 0.05% pepsin solution for 2.5 hrs at 37°C. P + T + C: The peptide solutions were successively digested with pepsin for 2.5 hrs. They were further incubated in pancreatin solution for another 2.5 hrs at 37°C. The ACE inhibitory activity are expressed as mean ± standard deviation (n = 3).

[3] = tested on: pepsin, trypsin and chymotrypsin; experiment: Stability against gastrointestinal enzymes observed by SEC; assay type: in vitro ADME; settings: 0.1 mg/ml; pepsin pH 2.0 2.5 hrs, then trypsin + chymotrypsin pH 8.0 2.5 hrs, 37°C; Biosep SEC-S2000, UV 214 nm
Description: as §2
Figure 4 Stability of peptide AHEPVK against gastrointestinal enzymes observed by SEC chromatograms. Separation was performed on a Biosep SEC-S2000 column (300 × 7.8 mm). Mobile phase consisted of 45% acetonitrile containing 0.1% TFA eluted at a flow rate of 1.0 ml/min. […]

[4] = peptides from milk and bonita fish

T1 sequence (P12821 30-1306, species assumed): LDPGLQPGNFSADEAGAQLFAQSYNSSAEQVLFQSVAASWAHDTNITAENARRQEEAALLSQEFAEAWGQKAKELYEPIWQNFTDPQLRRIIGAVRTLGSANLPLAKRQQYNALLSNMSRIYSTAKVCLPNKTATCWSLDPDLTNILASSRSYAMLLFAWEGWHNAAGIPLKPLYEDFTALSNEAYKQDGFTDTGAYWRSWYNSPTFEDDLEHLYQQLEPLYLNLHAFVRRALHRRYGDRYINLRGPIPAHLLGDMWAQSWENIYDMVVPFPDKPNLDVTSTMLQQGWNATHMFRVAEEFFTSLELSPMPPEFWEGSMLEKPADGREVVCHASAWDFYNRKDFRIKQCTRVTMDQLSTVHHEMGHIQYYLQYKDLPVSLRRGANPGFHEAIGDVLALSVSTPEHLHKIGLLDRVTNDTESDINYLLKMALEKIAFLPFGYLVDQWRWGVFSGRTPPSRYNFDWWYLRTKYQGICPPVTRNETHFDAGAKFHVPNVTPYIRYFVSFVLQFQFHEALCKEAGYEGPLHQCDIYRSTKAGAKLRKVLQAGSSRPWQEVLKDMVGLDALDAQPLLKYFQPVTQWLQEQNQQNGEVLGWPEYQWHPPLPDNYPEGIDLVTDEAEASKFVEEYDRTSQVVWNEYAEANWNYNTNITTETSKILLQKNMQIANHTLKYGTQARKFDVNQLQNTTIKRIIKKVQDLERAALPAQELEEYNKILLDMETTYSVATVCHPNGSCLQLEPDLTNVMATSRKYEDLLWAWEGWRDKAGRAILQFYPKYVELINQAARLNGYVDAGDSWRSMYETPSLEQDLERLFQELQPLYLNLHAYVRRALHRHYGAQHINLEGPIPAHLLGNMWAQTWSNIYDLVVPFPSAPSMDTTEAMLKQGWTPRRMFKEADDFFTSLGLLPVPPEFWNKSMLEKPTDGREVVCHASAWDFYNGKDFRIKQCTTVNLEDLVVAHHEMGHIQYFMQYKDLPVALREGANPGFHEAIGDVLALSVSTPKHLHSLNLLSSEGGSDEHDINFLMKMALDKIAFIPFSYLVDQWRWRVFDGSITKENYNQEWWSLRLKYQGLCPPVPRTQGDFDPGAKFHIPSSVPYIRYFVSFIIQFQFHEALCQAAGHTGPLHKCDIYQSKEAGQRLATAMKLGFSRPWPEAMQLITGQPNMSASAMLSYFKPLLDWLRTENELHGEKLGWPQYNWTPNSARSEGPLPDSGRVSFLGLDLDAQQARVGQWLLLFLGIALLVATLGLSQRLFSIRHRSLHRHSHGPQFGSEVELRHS

Compound: LRIPVA [peptide from spinach]
IC50 (ACE; peptide from spinach): 0.38 µM

Compound: PYVRYL [hexapeptide from milk]
IC50 (ACE; [4]): 2.4 µM

IC50 [1]: 278 µM | inhibition at 100 µg/mL (stock) [2]: 96% | ACE inhibitory activity without gastrointestinal digestion (control) [2]: 67.08% | ACE inhibitory activity after digestion by pepsin [2]: 92.22%
Compound: CSCC[C@H](NC(=O)[C@H](CO)NC(=O)[C@@H]1CCCN1C(=O)CN)C(=O)N[C@@H](CCCNC(=N)N)C(=O)O [GPSMR] (H-GPSMR-OH)
Stability of peptide against gastrointestinal enzymes (SEC chromatograms) [3]: hydrolysed after digestion; also recorded: hydrolysed into smaller fragments

Compound: GPCSR [peptide from sweet potato]
IC50 (ACE; peptides from sweet potato): 276 µM

Compound: GTEKC [peptide from sweet potato]
IC50 (ACE; peptides from sweet potato): 61.7 µM

Compound: C[C@H](CS)C(=O)N1CCC[C@H]1C(=O)O [captopril]
Inhibition pattern against ACE (ACE): competitive manner

IC50 [1]: 62.8 µM | inhibition at 100 µg/mL (stock) [2]: 95.9% | ACE inhibitory activity without gastrointestinal digestion (control) [2]: 80.27% | ACE inhibitory activity after digestion by pepsin [2]: 95.38%
Compound: CC(C)[C@H](NC(=O)[C@@H]1CCCN1C(=O)[C@H](CCC(=O)O)NC(=O)[C@H](Cc1c[nH]cn1)NC(=O)[C@H](C)N)C(=O)N[C@@H](CCCCN)C(=O)O [AHEPVK] (H-AHEPVK-OH)
Stability of peptide against gastrointestinal enzymes (SEC chromatograms) [3]: stable throughout gastrointestinal digestion; also recorded: confirmed the stability of AHEPVK against digestive enzymes; also recorded: remained stable following gastrointestinal digestion

Compound: LKPNM [pentapeptide from bonita fish]
IC50 (ACE; [4]): 2.4 µM
